# Measurements from patent US12077503B2, “Substituted cyclic amides and their use as herbicides” (FMC CORPORATION, priority 2015, dated 2024).
# Assays:
# Format in all cases: in vivo
# [1] = test system: barnyardgrass (Echinochloa crus-galli); test: Test G Post-Emergence Protocol; conditions: Echinochloa crus-galli, post-emergence, 312 h, read-out: Barnyardgrass damage rating; for pest or weed control at 15.625 g/ha: 15.625 g ai/ha, evaluated after 13 days (100=total damage to plant; 0=no damage to plant); for pest or weed control at 62.5 g/ha: 62.5 g ai/ha; for pest or weed control at 62.5 g/ha / pest or weed control at 250 g/ha: evaluated after 13 days, 100=total damage to plant, 0=no damage to plant; for pest or weed control at 250 g/ha: 250 g ai/ha
# Outline: (§1)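 Damage was rated 13 days after treatment from 0 (none) to 100 (plant killed). Compound was applied as a spray at 15.625, 62.5 or 250 g/ha in 50:50 acetone/water containing 0.5% Tween 20, onto 8-day-old potted plants kept in a glasshouse (24/16 °C, 14 h light, 65% humidity).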
# [2] = test system: velvetleaf (Abutilon theophrasti); test: Test G Post-Emergence Protocol; conditions: Abutilon theophrasti, post-emergence, 312 h, read-out: Velvetleaf damage rating; for pest or weed control at 15.625 g/ha: 15.625 g ai/ha, evaluated after 13 days (100=total damage to plant; 0=no damage to plant); for pest or weed control at 62.5 g/ha: 62.5 g ai/ha; for pest or weed control at 62.5 g/ha / pest or weed control at 250 g/ha: evaluated after 13 days, 100=total damage to plant, 0=no damage to plant; for pest or weed control at 250 g/ha: 250 g ai/ha
# Outline: as §1
# corn (Zea mays) [3] = test: Test G Post-Emergence Protocol; conditions: Zea mays, post-emergence, 312 h, read-out: Corn damage rating; for plant injury at 15.625 g/ha: 15.625 g ai/ha, evaluated after 13 days (100=total damage to plant; 0=no damage to plant); for plant injury at 62.5 g/ha: 62.5 g ai/ha; for plant injury at 62.5 g/ha / plant injury at 250 g/ha: evaluated after 13 days, 100=total damage to plant, 0=no damage to plant; for plant injury at 250 g/ha: 250 g ai/ha
# Outline: as §1
# [4] = test system: redroot pigweed (Amaranthus retroflexus); test: Test G Post-Emergence Protocol; conditions: Amaranthus retroflexus, post-emergence, 312 h, read-out: Pigweed, Redroot damage rating; for pest or weed control at 15.625 g/ha: 15.625 g ai/ha, evaluated after 13 days (100=total damage to plant; 0=no damage to plant); for pest or weed control at 62.5 g/ha: 62.5 g ai/ha; for pest or weed control at 62.5 g/ha / pest or weed control at 250 g/ha: evaluated after 13 days, 100=total damage to plant, 0=no damage to plant; for pest or weed control at 250 g/ha: 250 g ai/ha
# Outline: as §1
# [5] = test system: ivy-leaved morning glory (Ipomoea hederacea); test: Test G Post-Emergence Protocol; conditions: Ipomoea, post-emergence, 312 h, read-out: Morningglory, Ivy-leaved damage rating; for pest or weed control at 15.625 g/ha: 15.625 g ai/ha, evaluated after 13 days (100=total damage to plant; 0=no damage to plant); for pest or weed control at 62.5 g/ha: 62.5 g ai/ha; for pest or weed control at 62.5 g/ha / pest or weed control at 250 g/ha: evaluated after 13 days, 100=total damage to plant, 0=no damage to plant; for pest or weed control at 250 g/ha: 250 g ai/ha
# Outline: as §1
# [6] = test system: giant foxtail (Setaria faberi); test: Test G Post-Emergence Protocol; conditions: Setaria faberi, post-emergence, 312 h, read-out: Foxtail, Giant damage rating; for pest or weed control at 15.625 g/ha: 15.625 g ai/ha, evaluated after 13 days (100=total damage to plant; 0=no damage to plant); for pest or weed control at 62.5 g/ha: 62.5 g ai/ha; for pest or weed control at 62.5 g/ha / pest or weed control at 250 g/ha: evaluated after 13 days, 100=total damage to plant, 0=no damage to plant; for pest or weed control at 250 g/ha: 250 g ai/ha
# Outline: as §1
# [7] = test system: barnyardgrass (Echinochloa crus-galli); test: Test G Pre-Emergence Protocol; conditions: Echinochloa crus-galli, pre-emergence, 312 h, evaluated after 13 days; for pest or weed control at 15.625 g/ha: 15.625 g ai/ha; for pest or weed control at 15.625 g/ha / pest or weed control at 250 g/ha: read-out: Barnyardgrass damage rating (100=total damage to plant; 0=no damage to plant); for pest or weed control at 62.5 g/ha: 62.5 g ai/ha, 100=total damage to plant, 0=no damage to plant, read-out: Barnyardgrass damage rating; for pest or weed control at 250 g/ha: 250 g ai/ha
# Outline: (§2)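 Glasshouse pre-emergence test: soil-sown seeds, sprayed after 1 d at 15.625, 62.5 or 250 g/ha. Conditions 24/16° C day/night, 14 h light, 65% humidity, watering twice daily. Rating 13 d post-spray (100 = total damage).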
# [8] = test system: velvetleaf (Abutilon theophrasti); test: Test G Pre-Emergence Protocol; conditions: Abutilon theophrasti, pre-emergence, 312 h, evaluated after 13 days; for pest or weed control at 15.625 g/ha: 15.625 g ai/ha; for pest or weed control at 15.625 g/ha / pest or weed control at 250 g/ha: read-out: Velvetleaf damage rating (100=total damage to plant; 0=no damage to plant); for pest or weed control at 62.5 g/ha: 62.5 g ai/ha, 100=total damage to plant, 0=no damage to plant, read-out: Velvetleaf damage rating; for pest or weed control at 250 g/ha: 250 g ai/ha
# Outline: as §2
# corn (Zea mays) [9] = test: Test G Pre-Emergence Protocol; conditions: Zea mays, pre-emergence, 312 h, evaluated after 13 days; for plant injury at 15.625 g/ha: 15.625 g ai/ha; for plant injury at 15.625 g/ha / plant injury at 250 g/ha: read-out: Corn damage rating (100=total damage to plant; 0=no damage to plant); for plant injury at 62.5 g/ha: 62.5 g ai/ha, 100=total damage to plant, 0=no damage to plant, read-out: Corn damage rating; for plant injury at 250 g/ha: 250 g ai/ha
# Outline: as §2
# [10] = test system: redroot pigweed (Amaranthus retroflexus); test: Test G Pre-Emergence Protocol; conditions: Amaranthus retroflexus, pre-emergence, 312 h, evaluated after 13 days; for pest or weed control at 15.625 g/ha: 15.625 g ai/ha; for pest or weed control at 15.625 g/ha / pest or weed control at 250 g/ha: read-out: Pigweed, Redroot damage rating (100=total damage to plant; 0=no damage to plant); for pest or weed control at 62.5 g/ha: 62.5 g ai/ha, 100=total damage to plant, 0=no damage to plant, read-out: Pigweed, Redroot damage rating; for pest or weed control at 250 g/ha: 250 g ai/ha
# Outline: as §2
# [11] = test system: ivy-leaved morning glory (Ipomoea hederacea); test: Test G Pre-Emergence Protocol; conditions: Ipomoea, pre-emergence, 312 h, evaluated after 13 days; for pest or weed control at 15.625 g/ha: 15.625 g ai/ha; for pest or weed control at 15.625 g/ha / pest or weed control at 250 g/ha: read-out: Morningglory, Ivy-leaved damage rating (100=total damage to plant; 0=no damage to plant); for pest or weed control at 62.5 g/ha: 62.5 g ai/ha, 100=total damage to plant, 0=no damage to plant, read-out: Morningglory, Ivy-leaved damage rating; for pest or weed control at 250 g/ha: 250 g ai/ha
# Outline: as §2
# [12] = test system: giant foxtail (Setaria faberi); test: Test G Pre-Emergence Protocol; conditions: Setaria faberi, pre-emergence, 312 h, evaluated after 13 days; for pest or weed control at 15.625 g/ha: 15.625 g ai/ha; for pest or weed control at 15.625 g/ha / pest or weed control at 250 g/ha: read-out: Foxtail, Giant damage rating (100=total damage to plant; 0=no damage to plant); for pest or weed control at 62.5 g/ha: 62.5 g ai/ha, 100=total damage to plant, 0=no damage to plant, read-out: Foxtail, Giant damage rating; for pest or weed control at 250 g/ha: 250 g ai/ha
# Outline: as §2
Compound,pest or weed control at 15.625 g/ha [1] [%],pest or weed control at 62.5 g/ha [1] [%],pest or weed control at 250 g/ha [1] [%],pest or weed control at 15.625 g/ha [2] [%],pest or weed control at 62.5 g/ha [2] [%],pest or weed control at 250 g/ha [2] [%],plant injury at 15.625 g/ha (corn (Zea mays) [3]) [%],plant injury at 62.5 g/ha (corn (Zea mays) [3]) [%],plant injury at 250 g/ha (corn (Zea mays) [3]) [%],pest or weed control at 15.625 g/ha [4] [%],pest or weed control at 62.5 g/ha [4] [%],pest or weed control at 250 g/ha [4] [%],pest or weed control at 15.625 g/ha [5] [%],pest or weed control at 62.5 g/ha [5] [%],pest or weed control at 250 g/ha [5] [%],pest or weed control at 15.625 g/ha [6] [%],pest or weed control at 62.5 g/ha [6] [%],pest or weed control at 250 g/ha [6] [%],pest or weed control at 15.625 g/ha [7] [%],pest or weed control at 62.5 g/ha [7] [%],other results
Cc1c(F)cccc1NC(=O)[C@@H]1C(=O)N(C)C[C@H]1c1cccc(C(C)(C)O)c1 (racemic) [Compound 1819],0,20,80,0,0,0,0,0,20,0,0,10,0,0,50,0,40,80,0,60,pest or weed control at 250 g/ha [7]: 90%; pest or weed control at 15.625 g/ha [8]: 0%; pest or weed control at 62.5 g/ha [8]: 0%; pest or weed control at 250 g/ha [8]: 10%; plant injury at 15.625 g/ha (corn (Zea mays) [9]): 0%; plant injury at 62.5 g/ha (corn (Zea mays) [9]): 0%; plant injury at 250 g/ha (corn (Zea mays) [9]): 60%; pest or weed control at 15.625 g/ha [10]: 0%; pest or weed control at 62.5 g/ha [10]: 0%; pest or weed control at 250 g/ha [10]: 20%; pest or weed control at 15.625 g/ha [11]: 0%; pest or weed control at 62.5 g/ha [11]: 0%; pest or weed control at 250 g/ha [11]: 0%; pest or weed control at 15.625 g/ha [12]: 20%; pest or weed control at 62.5 g/ha [12]: 80%; pest or weed control at 250 g/ha [12]: 90%
CN1C[C@H](c2ccc(C(F)(F)F)cc2)[C@@H](C(=O)Nc2cccnc2[N+](=O)[O-])C1=O (racemic) [Compound 1824],0,0,10,0,0,70,0,0,20,0,0,20,0,0,10,0,0,10,0,0,pest or weed control at 250 g/ha [7]: 70%; pest or weed control at 15.625 g/ha [8]: 0%; pest or weed control at 62.5 g/ha [8]: 0%; pest or weed control at 250 g/ha [8]: 0%; plant injury at 15.625 g/ha (corn (Zea mays) [9]): 0%; plant injury at 62.5 g/ha (corn (Zea mays) [9]): 0%; plant injury at 250 g/ha (corn (Zea mays) [9]): 0%; pest or weed control at 15.625 g/ha [10]: 0%; pest or weed control at 62.5 g/ha [10]: 0%; pest or weed control at 250 g/ha [10]: 20%; pest or weed control at 15.625 g/ha [11]: 0%; pest or weed control at 62.5 g/ha [11]: 0%; pest or weed control at 250 g/ha [11]: 0%; pest or weed control at 15.625 g/ha [12]: 0%; pest or weed control at 62.5 g/ha [12]: 10%; pest or weed control at 250 g/ha [12]: 80%
